How the values were obtained:
[1] = test system: CAL-62; experiment: Half inhibitory concentration (IC50) against tumor cells, Cell Counting Kit-8; assay type: cell-based; details: Homo sapiens, CCK-8, 96 h treatment, read-out: inhibitory activity (IC50, nM) against tumor cells proliferation
Procedure: (§1) The tumor cells used herein were cultured in a cell culture medium listed in table A at 37° C. in an incubator with 5% CO2.
(§2) After the cells were treated with the compounds of the present disclosure for a period of time, the cell viability detection reagent was added to the culture medium for cell viability assessment according to the instructions provided with the CCK-8 kit. […] The growth inhibition of the compounds of the present disclosure on cells was plotted by Prism Graphpad software, and the IC50 values of the compounds of the present disclosure were calculated therefrom.

[2] = test system: CCRF-CEM; experiment: as above; assay type: cell-based; details: Homo sapiens, CCK-8, 96 h treatment, read-out: inhibitory activity (IC50, nM) against tumor cells proliferation
Procedure: as §1, §2

[3] = test system: Daudi; experiment: as above; assay type: cell-based; details: Homo sapiens, CCK-8, 96 h treatment, read-out: inhibitory activity (IC50, nM) against tumor cells proliferation
Procedure: as §1, §2

[4] = test system: JEKO-1; experiment: as above; assay type: cell-based; details: Homo sapiens, CCK-8, 96 h treatment, read-out: inhibitory activity (IC50, nM) against tumor cells proliferation
Procedure: as §1, §2

[5] = test system: Kasumi-1; experiment: as above; assay type: cell-based; details: Homo sapiens, CCK-8, 96 h treatment, read-out: inhibitory activity (IC50, nM) against tumor cells proliferation
Procedure: as §1, §2

[6] = test system: MDA-MB-231; experiment: as above; assay type: cell-based; details: Homo sapiens, CCK-8, 96 h treatment, read-out: inhibitory activity (IC50, nM) against tumor cells proliferation
Procedure: as §1, §2

[7] = test system: MM.1R; experiment: as above; assay type: cell-based; details: Homo sapiens, CCK-8, 96 h treatment, read-out: inhibitory activity (IC50, nM) against tumor cells proliferation
Procedure: as §1, §2

[8] = test system: MM.1S; experiment: as above; assay type: cell-based; details: Homo sapiens, MM1.S, CCK-8, 96 h treatment, read-out: inhibitory activity (IC50, nM) against tumor cells proliferation
Procedure: as §1, §2

[9] = test system: MV-4-11; experiment: as above; assay type: cell-based; details: Homo sapiens, MV4-11, CCK-8, 96 h treatment, read-out: inhibitory activity (IC50, nM) against tumor cells proliferation
Procedure: as §1, §2

[10] = test system: THP-1; experiment: as above; assay type: cell-based; details: Homo sapiens, CCK-8, 96 h treatment, read-out: inhibitory activity (IC50, nM) against tumor cells proliferation
Procedure: as §1, §2

[11] = biological target: T1, human Cereblon WT GST-tagged protein (Homo sapiens, UniProt Q96SW2); experiment: CRBN-binding affinity, HTRF (CEREBLON BINDING kit); details: displacement of Thalidomide-Re reagent, 3 hours at room temperature
T1 construct: purchased CISBIO 64BDCRBNPEH
Outline: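 HTRF competition format: compound, GST-tagged wild-type human Cereblon, Thalidomide-Re tracer and GST Eu antibody were combined in PROTAC binding buffer. Binding was derived from emission at 620 nm relative to blank and solvent control wells.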

[12] = biological target: T2, IKZF1 (Homo sapiens, UniProt Q13422+Q96SW2); experiment: Western-blot assay, substrate protein in hPBMCs; assay type: cell-based; details: hPBMC cells, 24 hours, tested at 50 nM and 500 nM, table does not say which
T2 construct: endogenous in cells; host or cells: human PBMCs (Milecell Biotechnologies)
Outline: (§3)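 hPBMCs (1×10^6 cells/mL) exposed 24 h to compound at 50 nM and 500 nM, lysed, and probed by Western blot. Band grayscale normalized to internal control gives % protein remaining versus DMSO; DC50 from concentration-response fit at half DMSO band intensity.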

[13] = biological target: T3, IKZF3 (Homo sapiens, UniProt Q96SW2+Q9UKT9); experiment: Western-blot assay, substrate protein in hPBMCs; assay type: cell-based; details: hPBMC cells, 24 hours, tested at 50 nM and 500 nM, table does not say which
T3 construct: endogenous in cells; host or cells: human PBMCs (Milecell Biotechnologies)
Outline: as §3

[14] = biological target: T4, CK1α (Homo sapiens, UniProt P48729+Q96SW2); experiment: Western-blot assay, substrate protein in hPBMCs; assay type: cell-based; details: hPBMC cells, 24 hours, tested at 50 nM and 500 nM, table does not say which
T4 construct: endogenous in cells; host or cells: human PBMCs (Milecell Biotechnologies)
Outline: (§4)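 Protein levels read by Western blot of lysates from human PBMCs (1×10^6 cells/mL) treated 24 h. Percent remaining is target band over loading-control band, normalised to DMSO-treated cells; DC50 is the concentration halving DMSO-control band intensity, estimated by curve fit.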

[15] = biological target: T5, GSPT1 (Homo sapiens, UniProt P15170+Q96SW2); experiment: Western-blot assay, substrate protein in hPBMCs; assay type: cell-based; details: hPBMC cells, 24 hours, tested at 50 nM and 500 nM, table does not say which
T5 construct: endogenous in cells; host or cells: human PBMCs (Milecell Biotechnologies)
Outline: as §4

[16] = biological target: T6, IKZF2 (Homo sapiens, UniProt Q96SW2+Q9UKS7); experiment: Western-blot assay, substrate protein in hPBMCs; assay type: cell-based; details: hPBMC cells, 24 hours, tested at 50 nM and 500 nM, table does not say which
T6 construct: endogenous in cells; host or cells: human PBMCs (Milecell Biotechnologies)
Outline: as §4

[17] = biological target: T7, Wee1 (Homo sapiens, UniProt P30291+Q96SW2); experiment: Western-blot assay, substrate protein in hPBMCs; assay type: cell-based; details: hPBMC cells, 24 hours, tested at 50 nM and 500 nM, table does not say which
T7 construct: endogenous in cells; host or cells: human PBMCs (Milecell Biotechnologies)
Outline: as §4

T4 sequence (P48729 whole entry): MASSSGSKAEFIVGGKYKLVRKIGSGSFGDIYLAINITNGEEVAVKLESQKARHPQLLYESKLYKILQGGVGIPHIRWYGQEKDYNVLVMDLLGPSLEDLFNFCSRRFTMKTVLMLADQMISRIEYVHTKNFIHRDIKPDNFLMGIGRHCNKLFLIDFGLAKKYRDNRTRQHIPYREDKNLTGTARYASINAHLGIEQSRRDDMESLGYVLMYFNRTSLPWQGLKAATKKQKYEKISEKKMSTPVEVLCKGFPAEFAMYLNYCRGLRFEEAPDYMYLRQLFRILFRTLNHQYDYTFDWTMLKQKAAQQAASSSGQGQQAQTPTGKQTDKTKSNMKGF
T4 sequence (Q96SW2 whole entry): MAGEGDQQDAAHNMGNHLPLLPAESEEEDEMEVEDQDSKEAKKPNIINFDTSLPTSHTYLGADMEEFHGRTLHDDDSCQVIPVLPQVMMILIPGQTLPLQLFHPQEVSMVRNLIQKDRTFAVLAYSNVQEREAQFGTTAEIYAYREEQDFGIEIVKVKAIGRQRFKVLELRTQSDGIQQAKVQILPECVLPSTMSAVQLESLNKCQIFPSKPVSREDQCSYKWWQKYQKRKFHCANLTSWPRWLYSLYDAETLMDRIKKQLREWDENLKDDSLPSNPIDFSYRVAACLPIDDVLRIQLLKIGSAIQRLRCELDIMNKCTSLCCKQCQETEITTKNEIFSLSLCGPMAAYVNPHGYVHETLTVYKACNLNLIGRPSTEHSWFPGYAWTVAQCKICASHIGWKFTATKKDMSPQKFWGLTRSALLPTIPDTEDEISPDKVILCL
T4 sequence (Q16531 whole entry partner): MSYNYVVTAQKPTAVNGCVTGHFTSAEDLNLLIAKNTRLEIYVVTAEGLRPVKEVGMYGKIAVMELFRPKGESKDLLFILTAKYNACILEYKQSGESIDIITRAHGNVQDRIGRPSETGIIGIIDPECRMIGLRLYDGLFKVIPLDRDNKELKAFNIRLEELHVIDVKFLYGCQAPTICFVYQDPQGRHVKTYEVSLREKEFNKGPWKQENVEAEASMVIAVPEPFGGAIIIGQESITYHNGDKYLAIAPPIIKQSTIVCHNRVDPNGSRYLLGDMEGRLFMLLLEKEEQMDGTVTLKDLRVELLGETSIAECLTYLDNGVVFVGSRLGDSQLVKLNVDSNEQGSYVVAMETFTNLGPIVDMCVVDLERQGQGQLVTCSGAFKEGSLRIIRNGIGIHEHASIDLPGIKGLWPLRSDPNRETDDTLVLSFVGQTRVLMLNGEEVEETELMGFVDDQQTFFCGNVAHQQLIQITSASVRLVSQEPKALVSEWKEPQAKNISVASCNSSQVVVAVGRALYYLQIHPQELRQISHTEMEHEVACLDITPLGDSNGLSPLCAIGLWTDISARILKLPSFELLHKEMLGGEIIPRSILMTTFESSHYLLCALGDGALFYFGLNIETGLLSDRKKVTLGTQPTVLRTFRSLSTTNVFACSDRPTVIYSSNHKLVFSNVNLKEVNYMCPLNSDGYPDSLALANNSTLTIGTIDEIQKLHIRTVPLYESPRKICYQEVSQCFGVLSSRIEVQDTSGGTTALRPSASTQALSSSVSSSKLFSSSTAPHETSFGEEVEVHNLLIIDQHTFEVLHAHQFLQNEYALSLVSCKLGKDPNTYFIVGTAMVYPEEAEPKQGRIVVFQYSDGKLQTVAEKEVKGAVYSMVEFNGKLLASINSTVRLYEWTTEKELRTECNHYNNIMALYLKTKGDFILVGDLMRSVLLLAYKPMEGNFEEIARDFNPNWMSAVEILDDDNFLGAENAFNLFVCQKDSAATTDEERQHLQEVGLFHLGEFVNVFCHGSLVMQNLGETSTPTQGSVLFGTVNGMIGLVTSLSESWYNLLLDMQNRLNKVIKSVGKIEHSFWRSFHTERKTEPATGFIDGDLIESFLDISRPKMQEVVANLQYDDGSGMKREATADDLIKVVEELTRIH
T6 sequence (Q9UKS7 whole entry): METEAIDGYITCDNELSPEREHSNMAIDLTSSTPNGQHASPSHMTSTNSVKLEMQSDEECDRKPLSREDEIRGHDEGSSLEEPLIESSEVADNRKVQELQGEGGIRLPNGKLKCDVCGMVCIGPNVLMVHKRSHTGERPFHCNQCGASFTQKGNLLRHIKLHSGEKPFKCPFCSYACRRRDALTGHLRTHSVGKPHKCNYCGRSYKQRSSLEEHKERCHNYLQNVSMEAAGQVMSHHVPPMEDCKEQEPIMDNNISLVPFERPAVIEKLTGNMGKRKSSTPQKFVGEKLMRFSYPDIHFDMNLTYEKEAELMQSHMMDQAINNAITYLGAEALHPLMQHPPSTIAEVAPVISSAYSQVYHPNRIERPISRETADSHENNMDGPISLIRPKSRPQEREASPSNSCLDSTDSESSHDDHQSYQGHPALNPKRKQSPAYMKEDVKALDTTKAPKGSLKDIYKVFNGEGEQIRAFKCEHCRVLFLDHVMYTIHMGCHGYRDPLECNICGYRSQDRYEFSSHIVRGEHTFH
T6 sequence (Q96SW2 whole entry): as the sequence (Q96SW2 whole entry) above
T6 sequence (Q16531 whole entry partner): as the sequence (Q16531 whole entry partner) above
T3 sequence (Q9UKT9 whole entry): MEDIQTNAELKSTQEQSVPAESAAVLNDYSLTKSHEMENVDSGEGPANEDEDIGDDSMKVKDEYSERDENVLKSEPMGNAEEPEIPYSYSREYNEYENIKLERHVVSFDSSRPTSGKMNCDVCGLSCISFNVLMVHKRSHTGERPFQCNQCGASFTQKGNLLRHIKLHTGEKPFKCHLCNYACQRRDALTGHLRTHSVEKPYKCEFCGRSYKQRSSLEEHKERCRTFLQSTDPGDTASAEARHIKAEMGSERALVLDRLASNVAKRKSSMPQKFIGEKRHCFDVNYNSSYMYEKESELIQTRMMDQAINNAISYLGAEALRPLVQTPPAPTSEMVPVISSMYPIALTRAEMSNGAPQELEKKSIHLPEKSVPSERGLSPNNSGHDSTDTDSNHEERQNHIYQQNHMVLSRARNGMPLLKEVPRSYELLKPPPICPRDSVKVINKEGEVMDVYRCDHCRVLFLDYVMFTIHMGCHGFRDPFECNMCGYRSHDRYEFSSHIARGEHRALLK
T3 sequence (Q96SW2 whole entry): as the sequence (Q96SW2 whole entry) above
T3 sequence (Q16531 whole entry partner): as the sequence (Q16531 whole entry partner) above
T1 sequence (Q96SW2 whole entry): as the sequence (Q96SW2 whole entry) above
T5 sequence (P15170 whole entry): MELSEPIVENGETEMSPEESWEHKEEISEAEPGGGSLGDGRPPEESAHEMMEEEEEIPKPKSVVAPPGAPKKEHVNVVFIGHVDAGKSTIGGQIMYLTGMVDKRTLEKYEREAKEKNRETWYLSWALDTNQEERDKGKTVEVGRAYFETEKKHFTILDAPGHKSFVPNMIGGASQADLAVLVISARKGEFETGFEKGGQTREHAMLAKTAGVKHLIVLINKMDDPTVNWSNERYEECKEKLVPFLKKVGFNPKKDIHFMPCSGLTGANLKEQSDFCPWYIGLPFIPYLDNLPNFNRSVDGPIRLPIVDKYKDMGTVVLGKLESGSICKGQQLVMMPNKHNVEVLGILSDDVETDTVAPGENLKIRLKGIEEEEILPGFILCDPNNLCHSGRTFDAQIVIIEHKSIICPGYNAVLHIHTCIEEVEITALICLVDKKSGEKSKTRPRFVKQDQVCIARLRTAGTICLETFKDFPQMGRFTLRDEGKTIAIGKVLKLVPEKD
T5 sequence (Q96SW2 whole entry): as the sequence (Q96SW2 whole entry) above
T5 sequence (Q16531 whole entry partner): as the sequence (Q16531 whole entry partner) above
T7 sequence (P30291 whole entry): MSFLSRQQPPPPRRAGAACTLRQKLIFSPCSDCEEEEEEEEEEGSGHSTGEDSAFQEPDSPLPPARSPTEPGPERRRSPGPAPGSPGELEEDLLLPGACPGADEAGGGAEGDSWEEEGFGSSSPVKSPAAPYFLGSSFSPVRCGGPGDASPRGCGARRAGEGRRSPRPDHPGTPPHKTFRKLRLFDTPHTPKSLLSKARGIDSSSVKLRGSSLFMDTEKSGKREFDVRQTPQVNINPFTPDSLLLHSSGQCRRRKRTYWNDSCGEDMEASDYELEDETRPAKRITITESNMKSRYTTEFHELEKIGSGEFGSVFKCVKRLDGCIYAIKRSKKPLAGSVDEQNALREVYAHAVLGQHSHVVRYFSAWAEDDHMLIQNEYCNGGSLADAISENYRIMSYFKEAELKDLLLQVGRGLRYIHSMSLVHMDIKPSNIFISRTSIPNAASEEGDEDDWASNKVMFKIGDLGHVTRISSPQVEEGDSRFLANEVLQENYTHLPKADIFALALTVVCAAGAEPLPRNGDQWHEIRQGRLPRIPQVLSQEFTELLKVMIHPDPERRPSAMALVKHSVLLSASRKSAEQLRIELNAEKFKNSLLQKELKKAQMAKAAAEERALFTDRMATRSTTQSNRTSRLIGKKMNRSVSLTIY
T7 sequence (Q96SW2 whole entry): as the sequence (Q96SW2 whole entry) above
T7 sequence (Q16531 whole entry partner): as the sequence (Q16531 whole entry partner) above

| SMILES | IC50 [1] | IC50 [2] | IC50 [3] | IC50 [4] | IC50 [5] | IC50 [6] | IC50 [7] | IC50 [8] | IC50 [9] | IC50 [10] | IC50 [11] | substrate protein remaining % [12] | substrate protein remaining % [13] | substrate protein remaining % [14] | substrate protein remaining % [15] | substrate protein remaining % [16] | substrate protein remaining % [17] |
| --- | --- | --- | --- | --- | --- | --- | --- | --- | --- | --- | --- | --- | --- | --- | --- | --- | --- |
| O=C1CCC(N2Cc3cc(SC4CN(Cc5ccccc5-c5ccc(Cl)cc5)C4)ccc3C2=O)C(=O)N1 (stereo not drawn) [GT-03360, 3-(5-((1-((4′-chloro-[1,1′-biphenyl]-2-yl)methyl)azetidin-3-yl)thio)-1-oxoisoindolin-2-yl)piperidine-2,6-dione] | 50 to 100 nM | 50 to 100 nM | < 1 nM | 100 to 500 nM | 100 to 500 nM | 100 to 500 nM | 50 to 100 nM | 100 to 500 nM | 100 to 500 nM | 10 to 50 nM | < 500 nM | A (0%≤ substrate protein remaining % ≤80%) | A (0%≤ substrate protein remaining % ≤80%) | A (0%≤ substrate protein remaining % ≤80%) | A (0%≤ substrate protein remaining % ≤80%) | A (0%≤ substrate protein remaining % ≤80%) |  |
| O=C1CCC(N2Cc3cc(OC4CN(Cc5ccccc5-c5ccc(Cl)cc5)C4)ccc3C2=O)C(=O)N1 (stereo not drawn) [GT-03363, 3-(5-((1-((4′-chloro-[1,1′-biphenyl]-2-yl)methyl)azetidin-3-yl)oxy)-1-oxoisoindolin-2-yl)piperidine-2,6-dione] |  | 100 to 500 nM |  | 100 to 500 nM |  |  |  |  |  |  | 500 to 1000 nM | A (0%≤ substrate protein remaining % ≤80%) | A (0%≤ substrate protein remaining % ≤80%) | A (0%≤ substrate protein remaining % ≤80%) | A (0%≤ substrate protein remaining % ≤80%) |  | A (0%≤ substrate protein remaining % ≤80%) |
| O=C1CCC(N2Cc3cc(SC4CN(C(=O)c5ccccc5-c5ccc(Cl)cc5)C4)ccc3C2=O)C(=O)N1 (stereo not drawn) [GT-03892, 3-(5-((1-(4′-chloro-[1,1′-biphenyl]-2-carbonyl)azetidin-3-yl)thio)-1-oxoisoindolin-2-yl)piperidine-2,6-dione] | 10 to 50 nM | 10 to 50 nM |  |  |  |  |  |  |  | 100 to 500 nM | < 500 nM | A (0%≤ substrate protein remaining % ≤80%) | A (0%≤ substrate protein remaining % ≤80%) |  | A (0%≤ substrate protein remaining % ≤80%) | A (0%≤ substrate protein remaining % ≤80%) | A (0%≤ substrate protein remaining % ≤80%) |
| O=C1CCC(N2Cc3cc(SC4CCN(Cc5ccccc5-c5ccc(Cl)cc5)CC4)ccc3C2=O)C(=O)N1 (stereo not drawn) [GT-03357, 3-(5-((1-((4′-chloro-[1,1′-biphenyl]-2-yl)methyl)piperidin-4-yl)thio)-1-oxoisoindolin-2-yl)piperidine-2,6-dione] |  | 100 to 500 nM | 100 to 500 nM |  |  |  |  |  |  |  |  |  | A (0%≤ substrate protein remaining % ≤80%) |  | A (0%≤ substrate protein remaining % ≤80%) |  |  |

Second part, led by results:

| IC50 [1] | IC50 [2] | IC50 [3] | IC50 [4] | IC50 [5] | IC50 [6] | IC50 [7] | IC50 [8] | IC50 [9] | IC50 [10] | IC50 [11] | SMILES | substrate protein remaining % [12] | substrate protein remaining % [13] | substrate protein remaining % [14] | substrate protein remaining % [15] | substrate protein remaining % [16] | substrate protein remaining % [17] |
| --- | --- | --- | --- | --- | --- | --- | --- | --- | --- | --- | --- | --- | --- | --- | --- | --- | --- |
| > 10000 nM | > 10000 nM | > 10000 nM | > 10000 nM | > 10000 nM | > 10000 nM | > 10000 nM | 500 to 1000 nM | > 10000 nM | > 10000 nM |  | Nc1cccc2c1C(=O)N(C1CCC(=O)NC1=O)C2=O (stereo not drawn) [pomalidomide, reference compound] |  |  |  |  |  |  |
|  | 50 to 100 nM |  |  | 100 to 500 nM |  |  |  | 50 to 100 nM |  | < 500 nM | O=C1CCC(N2Cc3cc(SC4CN(C(c5ccccc5F)c5ccccc5F)C4)ccc3C2=O)C(=O)N1 (stereo not drawn) [GT-06758, 3-(5-((1-(bis(2-fluorophenyl)methyl)azetidin-3-yl)thio)-1-oxoisoindolin-2-yl)piperidine-2,6-dione] | A (0%≤ substrate protein remaining % ≤80%) |  |  | A (0%≤ substrate protein remaining % ≤80%) | A (0%≤ substrate protein remaining % ≤80%) |  |
|  | 50 to 100 nM |  |  | 100 to 500 nM |  |  |  | 10 to 50 nM |  | 1000 to 1900 nM | O=C1CCC(N2Cc3cc(SC4CCN(C(c5ccccc5)c5ccccc5)CC4(F)F)ccc3C2=O)C(=O)N1 (stereo not drawn) [GT-06926, 3-(5-((1-benzhydryl-3,3-difluoropiperidin-4-yl)thio)-1-oxoisoindolin-2-yl)piperidine-2,6-dione] | A (0%≤ substrate protein remaining % ≤80%) | A (0%≤ substrate protein remaining % ≤80%) | A (0%≤ substrate protein remaining % ≤80%) | A (0%≤ substrate protein remaining % ≤80%) | A (0%≤ substrate protein remaining % ≤80%) | A (0%≤ substrate protein remaining % ≤80%) |
|  |  |  |  |  |  |  | 10 to 50 nM |  |  | < 500 nM | O=C1CCC(N2Cc3cc(OC4CCN(C(=O)c5ccccc5-c5ccc(Cl)cc5)CC4)ccc3C2=O)C(=O)N1 (stereo not drawn) [GT-06204, 3-(5-((1-(4′-chloro-[1,1′-biphenyl]-2-carbonyl)piperidin-4-yl)oxy)-1-oxoisoindolin-2-yl)piperidine-2,6-dione] |  | A (0%≤ substrate protein remaining % ≤80%) | A (0%≤ substrate protein remaining % ≤80%) | A (0%≤ substrate protein remaining % ≤80%) | A (0%≤ substrate protein remaining % ≤80%) |  |
|  |  |  |  |  |  |  | 10 to 50 nM |  |  | < 500 nM | O=C1CCC(N2Cc3cc(SC4CCN(C(=O)c5ccccc5-c5ccc(Cl)cc5)CC4)ccc3C2=O)C(=O)N1 (stereo not drawn) [GT-06182, 3-(5-((1-(4′-chloro-[1,1′-biphenyl]-2-carbonyl)piperidin-4-yl)thio)-1-oxoisoindolin-2-yl)piperidine-2,6-dione] | A (0%≤ substrate protein remaining % ≤80%) | A (0%≤ substrate protein remaining % ≤80%) | A (0%≤ substrate protein remaining % ≤80%) | A (0%≤ substrate protein remaining % ≤80%) |  | A (0%≤ substrate protein remaining % ≤80%) |
|  |  |  |  |  |  |  |  |  | 500 to 1000 nM | < 500 nM | CC1(C)CCC(CN2CCC(Sc3ccc4c(c3)CN(C3CCC(=O)NC3=O)C4=O)C2)=C(c2ccc(Cl)cc2)C1 (stereo not drawn) [GT-04245, 3-(5-((1-((4′-chloro-5,5-dimethyl-3,4,5,6-tetrahydro-[1,1′-biphenyl]-2-yl)methyl)pyrrolidin-3-yl)thio)-1-oxoisoindolin-2-yl)piperidine-2,6-dione] |  |  |  | A (0%≤ substrate protein remaining % ≤80%) | A (0%≤ substrate protein remaining % ≤80%) |  |

From patent US20260207578A1, “COMPOUND BASED ON SULFUR/OXYGEN SUBSTITUTED GLUTARIMIDE-BASED ISOINDOLINONE SKELETON AND USE THEREOF” (Gluetacs Therapeutics (Shanghai) Co., LTD., priority 2022, published 2026)
